The target of assay [1] is T1, ERRα ligand binding domain (ERRα-LBD) (Homo sapiens, UniProt P11474).
T1 construct: made in house; host or cells: E. coli
T1 sequence (P11474 193-421 limits assumed): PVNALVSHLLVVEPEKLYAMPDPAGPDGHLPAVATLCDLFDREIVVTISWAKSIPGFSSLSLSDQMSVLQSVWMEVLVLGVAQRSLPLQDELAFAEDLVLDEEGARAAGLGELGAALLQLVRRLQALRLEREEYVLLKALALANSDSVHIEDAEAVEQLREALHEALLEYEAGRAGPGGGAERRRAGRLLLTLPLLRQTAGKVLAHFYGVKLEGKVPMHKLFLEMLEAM
As to the kind of experiment: ERRα AlphaScreen Assay. Type of assay: biochemical. The following applies: disruption of binding of ERRα-LBD protein to biotin-PGC1α-3 co-activator peptide; read-out: mean pIC50 (converted). The method, boiled down:
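E. coli-expressed 6His-SUMO-ERRα-LBD (0.81 nM) incubated with compound and donor/acceptor beads 1 h, then 2 h with 15 nM biotin-PGC1α-3 peptide (aa 202–220); room temperature, Tris pH 7.5 buffer with TCEP, 1% DMSO, triplicates. Loss of co-activator binding read by AlphaScreen; four-parameter dose-response fit.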

In the next assay the test system is B16F10 melanoma. As to the kind of experiment: B16F10 Melanoma Syngeneic Mouse Model. Type of assay: in vivo. The following applies: 30 mpk p.o., q.d., B16F10 allograft in C57BL/6 mice. As for the experimental part:
Example inhibitor 80 was tested for its ability to inhibit tumor growth in a B16F10 melanoma syngeneic mouse model. Cell line and tumor model: B16F10 melanoma cell line derived allograft model in C57BL/6 mice.
Mouse B16F10 melanoma cells were sourced from American Type Culture Collection (ATCC), USA. Cells were grown in DMEM (Invitrogen, Catalogue No. 31600-034) supplemented with 10% FBS (Invitrogen, Catalogue No. 10438-026), and 1% penicillin streptomycin (Thermo Fisher Scientific, Catalogue No. 15140-122). To establish allografts, the cells were harvested by trypsinization when they reach around 70 to 80% confluence and 0.1 million B16F10 cells were suspended in 50 μl of serum free medium and mixed at 1:1 ratio with matrigel before implanting subcutaneously into the dorsal right flank of mice using a 1 mL BD syringe attached to a 24-gauge needle.
B16F10 tumor grafts were measured after 5 days of cell inoculation once they became palpable. […]
Tumor dimensions—length (I) and breadth (b)—were measured by caliper on the day of animal randomization based on tumor volume (Day 1) and thrice weekly thereafter until study termination. Tumor volumes were calculated using the formula b^2*I*0.52 where I=length, b=breadth (Dusan Djokovic et al., BMC Cancer, 2010, 10:641). Tumor growth inhibition was calculated after normalizing the tumor volume on a given day to that on Day 1. […]

A further assay addresses T2, full length ERRα (Homo sapiens, UniProt P11474).
T2 construct: an over-expression construct coding full length ERRα; expressed in transfected cells; host or cells: SK-BR-3 cells, transient co-transfection of pLP2124 (pcDNA3.1/Hygro(+) background) and reporter pLP2175
T2 sequence (P11474 1-423): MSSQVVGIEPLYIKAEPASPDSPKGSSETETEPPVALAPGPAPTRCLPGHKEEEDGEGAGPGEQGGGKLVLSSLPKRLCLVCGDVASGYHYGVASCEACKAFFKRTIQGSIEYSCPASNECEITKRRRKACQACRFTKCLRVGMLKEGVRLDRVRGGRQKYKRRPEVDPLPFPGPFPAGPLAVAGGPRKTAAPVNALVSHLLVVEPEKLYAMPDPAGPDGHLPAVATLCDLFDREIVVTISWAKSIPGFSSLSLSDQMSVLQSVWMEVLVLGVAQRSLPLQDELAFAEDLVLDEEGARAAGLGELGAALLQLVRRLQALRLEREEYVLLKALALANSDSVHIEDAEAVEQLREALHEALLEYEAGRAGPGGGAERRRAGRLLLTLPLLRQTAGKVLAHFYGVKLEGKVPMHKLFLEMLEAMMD
As to the kind of experiment: Full Length ERRα Reporter Gene Assay. Type of assay: cell-based. The following applies: SK-BR-3 cells, ERRα-RE luciferase reporter, overnight incubation; read-out: mean pIC50 (converted). The source says:
A method was established to quantitatively screen the potency of compounds with inverse agonistic activity on the nuclear receptor ERRα of the human species. The assay allows intra-cellular screening of ERRα inverse agonists in SK-BR-3 cells using an over-expression construct coding full length ERRα and a reporter construct containing an ERRα Response Element (RE) and a luciferase gene for read out. The activity is expressed in logIC50 values and can be used to determine SAR of compound families or to de-select compounds.
In this assay, reporter cells are obtained by transient co-transfection of two constructs in SK-BR-3 cells using standard transfection techniques. The first construct contains a response element of the nuclear receptor ERRα (Plasmid pLP2175, Reporter construct ERRα-RE/luc2P, cloned variant of ERRα_v2_synthRE, Switchgear Genomics, Catalog Number S900089). This sequence drives the transcription of the luciferase reporter gene in response to binding of an ERRα protein encoded by the second construct (Plasmid pLP2124: full length ERRα expression construct using pcDNA3.1/Hygro(+) as background, Invitrogen Catalog Number V87020).
The day after transfection, cells were plated into 96 well plates, the test compound was added and the plates were incubated overnight. Subsequently, the firefly luciferase activity was quantified using luciferase detection reagent and luminescence readout.
Transfection is performed on pre-seeded SK-BR-3 cells in a T175 flask. One transfected T175 flask is sufficient for seeding 3 to 4 MW96 plates the next day, depending on the confluency of the transfected cells.
Two different media are used in this protocol for cell treatment: 1) Culture medium, i.e. McCoy's 5a with phenol red (BioWhittaker Supplier Number 12-688F), 10% FBS and 1× Penstrep.; and, 2) Assay medium, i.e. McCoy's 5a Medium phenol red free (HyClone Product Code SH30270.01) with 2% Charcoal Stripped FBS and 1× Penstrep. Compound dilutions are prepared in assay medium.
Cells are seeded at least 2 days in advance to allow the cells to adhere well to flask before transfection. Cells should be 50-80% confluent at the day of transfection.
SKBR3 cells were transfected with the transcriptional reporter construct pLP2175 and the ERRα expression construct pLP2124 (as described above).
68 μL of Lipofectamine LTX transfection reagent (Invitrogen Catalog Number 15338-100) was added dropwise to 8.9 ml Opti-MEM I Reduced Serum Medium (Gibco Catalog Number 51985-026) and incubated at room temperature for 5 to 20 minutes. 8.9 ml of this reagent mixture was added to 22 μg pLP2175+22 μg pLP2124 (ratio 1:1 and total volume 10 ml), and incubated at room temperature for 25 minutes.
10 minutes before adding the transfection mix to SKBR3 cells in a T175 flask, the culture medium was refreshed with 20 mL culture medium. Subsequently, the 10 mL DNA-Opti-MEM-Lipofectamine mixture was gently added to the cells, followed by overnight (16-24 hours) incubation at 37° C. and 5% CO2.
To harvest SKBR3 cells from a T175 flask, first the medium was removed. Subsequently, cells were washed with Phosphate Buffered Saline (PBS) (Lonza), after which the PBS was removed. To dissociate the cells, 2 ml of TrypLE Express (I nvitrogen) was added to the flask, followed by incubation at 37° C. for 5 minutes. The flask was tapped until cells were detached from the bottom. Cells were collected in 8 mL of culture medium (McCoy's 5a, 10% FBS, penstrep), to achieve a single cell suspension. After cell count, cells were spun down for 5 minutes at 300 g. Next cell pellets were re-suspended to 25000 cells/80 μl assay medium (McCoy's 5a phenol red free, 2% charcoal stripped FBS, penstrep).
For compound screening, the cells were harvested (as described above). 80 μL of cell suspension (25,000 cells) was plated per well into a white, flat bottom, tissue culture treated, 96 well screening plates (Greiner). […]
On the technique in general: A reporter such as luciferase makes a cellular process visible.

The values below come from US20240150342A1, “ESTROGEN-RELATED RECEPTOR ALPHA MODULATORS” (LEAD PHARMA HOLDING B.V., priority 2019, published 2024).

Take `COc1cc(C2CC(=O)Nc3n[nH]cc32)ccc1Oc1cc(C(F)(F)F)cc(C(F)(F)F)c1` (single isomer, unassigned; (-)) [Example 80, (−)-4-{4-[3,5-bis(trifluoromethyl)phenoxy]-3-methoxyphenyl}-2H,4H,5H,6H,7H-pyrazolo[3,4-b]pyridin-6-one]: the IC50 in assay [1] was no more than 10 nM. The “Tumor Volume (mm^3) Day 13” value in the assay with B16F10 melanoma is listed as 684 ± 82 mm^3. Also, in the assay with B16F10 melanoma (Day 13), the “Tumor Growth Inhibition (%)” value was 64%.
Take `COC(=O)c1ccc(Oc2ccc(C3CC(=O)Nc4n[nH]cc43)cc2OC)c(C(C)(C)C)c1` (centres unmarked) [Example 35, methyl 3-tert-butyl-4-(2-methoxy-4-{6-oxo-2H,4H,5H,6H,7H-pyrazolo[3,4-b]pyridin-4-yl}phenoxy)benzoate]: the figures for the IC50 (in assay [1]; on full length ERRα) were no more than 10 nM and no more than 316 nM, respectively.
